For six molecules, IC50 results are on record in patent publication US9340590B2 (priority 2011, dated 2016).

Common to all, as to test: cell-based
One test has as its target hNav1.7 (Homo sapiens, UniProt Q15858). The test is classed as cell-based.
A further test addresses hNav1.3 (Homo sapiens, UniProt Q9NY46). The conditions noted are these: IonWorks Quattro, read-out: IWQ Use Nav1.3. Background: The patch-clamp technique gives a direct electrical read-out from membranes.
A further test concerns the target hNav1.5 (Homo sapiens, UniProt Q14524). The conditions noted are these: IonWorks Quattro, read-out: IWQ Use Nav1.5.
The mark [1] stands for this setting: IonWorks Quattro, use-dependent block, hNav1.7, read-out: IWQ Use Nav1.7.
Setting [2] is: use-dependent protocol, hNav1.3.
Where [3] appears, read: use-dependent protocol, hNav1.5.

Read-outs that look alike come from different tables or passages of the source. Positions of bridges follow the written chain, without caps; N, C: chain ends. Non-standard residues stand in square brackets, D forms with d. Residues, ends and D or L forms follow the SMILES beside them. Lys(Me2) = CN(C)CCCC[C@H](N)C(=O)O; Cha = N[C@@H](CC1CCCCC1)C(=O)O

hNav1.7, sequence (Q15858 whole entry, looked up): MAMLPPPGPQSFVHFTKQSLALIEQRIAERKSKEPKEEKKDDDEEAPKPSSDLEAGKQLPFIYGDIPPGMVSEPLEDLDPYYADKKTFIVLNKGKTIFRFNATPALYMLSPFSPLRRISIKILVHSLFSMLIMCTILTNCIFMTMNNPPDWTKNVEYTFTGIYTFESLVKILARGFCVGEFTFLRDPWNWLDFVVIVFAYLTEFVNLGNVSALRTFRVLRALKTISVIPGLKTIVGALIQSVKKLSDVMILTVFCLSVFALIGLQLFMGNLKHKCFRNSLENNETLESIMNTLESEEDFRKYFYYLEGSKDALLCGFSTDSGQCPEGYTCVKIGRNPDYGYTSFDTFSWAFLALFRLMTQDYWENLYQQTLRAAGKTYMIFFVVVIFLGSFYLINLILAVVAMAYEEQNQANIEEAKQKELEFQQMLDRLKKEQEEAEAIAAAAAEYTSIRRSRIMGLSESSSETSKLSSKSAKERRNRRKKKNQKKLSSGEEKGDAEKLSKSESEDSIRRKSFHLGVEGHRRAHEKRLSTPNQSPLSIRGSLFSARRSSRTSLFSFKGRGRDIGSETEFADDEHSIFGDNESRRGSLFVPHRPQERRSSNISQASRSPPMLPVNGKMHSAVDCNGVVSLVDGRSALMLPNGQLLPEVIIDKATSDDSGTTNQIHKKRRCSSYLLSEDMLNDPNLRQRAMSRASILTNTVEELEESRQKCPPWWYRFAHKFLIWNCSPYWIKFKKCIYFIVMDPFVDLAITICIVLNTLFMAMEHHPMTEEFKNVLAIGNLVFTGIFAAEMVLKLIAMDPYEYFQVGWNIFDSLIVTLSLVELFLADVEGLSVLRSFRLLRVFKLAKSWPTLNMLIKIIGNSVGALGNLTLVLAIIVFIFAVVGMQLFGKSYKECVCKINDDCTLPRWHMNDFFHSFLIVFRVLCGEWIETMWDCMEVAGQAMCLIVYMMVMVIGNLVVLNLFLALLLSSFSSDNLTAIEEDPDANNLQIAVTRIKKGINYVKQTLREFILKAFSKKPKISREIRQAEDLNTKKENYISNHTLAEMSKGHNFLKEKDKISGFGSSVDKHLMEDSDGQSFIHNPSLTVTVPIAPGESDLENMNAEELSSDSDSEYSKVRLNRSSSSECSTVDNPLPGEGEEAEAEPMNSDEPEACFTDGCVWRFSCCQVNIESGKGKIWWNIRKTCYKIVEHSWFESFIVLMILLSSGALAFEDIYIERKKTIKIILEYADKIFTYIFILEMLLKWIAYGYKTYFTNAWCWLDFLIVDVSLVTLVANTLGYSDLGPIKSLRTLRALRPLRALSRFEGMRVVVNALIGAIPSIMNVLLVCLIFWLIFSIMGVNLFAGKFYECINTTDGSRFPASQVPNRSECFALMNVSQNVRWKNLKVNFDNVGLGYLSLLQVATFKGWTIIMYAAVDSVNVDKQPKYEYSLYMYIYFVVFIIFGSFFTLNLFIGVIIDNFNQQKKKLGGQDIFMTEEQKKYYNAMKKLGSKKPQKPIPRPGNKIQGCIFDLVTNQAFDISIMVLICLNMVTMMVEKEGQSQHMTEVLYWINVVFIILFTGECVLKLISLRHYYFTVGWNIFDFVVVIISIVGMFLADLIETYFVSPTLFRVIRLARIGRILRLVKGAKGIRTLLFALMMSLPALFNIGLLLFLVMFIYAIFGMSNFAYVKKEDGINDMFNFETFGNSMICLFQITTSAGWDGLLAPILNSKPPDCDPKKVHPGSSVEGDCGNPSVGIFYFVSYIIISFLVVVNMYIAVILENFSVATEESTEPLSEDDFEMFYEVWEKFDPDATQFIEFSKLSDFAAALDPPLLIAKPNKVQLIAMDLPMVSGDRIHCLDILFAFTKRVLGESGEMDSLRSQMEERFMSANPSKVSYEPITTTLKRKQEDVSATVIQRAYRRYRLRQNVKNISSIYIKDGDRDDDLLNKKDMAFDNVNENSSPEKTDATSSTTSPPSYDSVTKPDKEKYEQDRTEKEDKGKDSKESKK
hNav1.3, sequence (Q9NY46 whole entry, looked up): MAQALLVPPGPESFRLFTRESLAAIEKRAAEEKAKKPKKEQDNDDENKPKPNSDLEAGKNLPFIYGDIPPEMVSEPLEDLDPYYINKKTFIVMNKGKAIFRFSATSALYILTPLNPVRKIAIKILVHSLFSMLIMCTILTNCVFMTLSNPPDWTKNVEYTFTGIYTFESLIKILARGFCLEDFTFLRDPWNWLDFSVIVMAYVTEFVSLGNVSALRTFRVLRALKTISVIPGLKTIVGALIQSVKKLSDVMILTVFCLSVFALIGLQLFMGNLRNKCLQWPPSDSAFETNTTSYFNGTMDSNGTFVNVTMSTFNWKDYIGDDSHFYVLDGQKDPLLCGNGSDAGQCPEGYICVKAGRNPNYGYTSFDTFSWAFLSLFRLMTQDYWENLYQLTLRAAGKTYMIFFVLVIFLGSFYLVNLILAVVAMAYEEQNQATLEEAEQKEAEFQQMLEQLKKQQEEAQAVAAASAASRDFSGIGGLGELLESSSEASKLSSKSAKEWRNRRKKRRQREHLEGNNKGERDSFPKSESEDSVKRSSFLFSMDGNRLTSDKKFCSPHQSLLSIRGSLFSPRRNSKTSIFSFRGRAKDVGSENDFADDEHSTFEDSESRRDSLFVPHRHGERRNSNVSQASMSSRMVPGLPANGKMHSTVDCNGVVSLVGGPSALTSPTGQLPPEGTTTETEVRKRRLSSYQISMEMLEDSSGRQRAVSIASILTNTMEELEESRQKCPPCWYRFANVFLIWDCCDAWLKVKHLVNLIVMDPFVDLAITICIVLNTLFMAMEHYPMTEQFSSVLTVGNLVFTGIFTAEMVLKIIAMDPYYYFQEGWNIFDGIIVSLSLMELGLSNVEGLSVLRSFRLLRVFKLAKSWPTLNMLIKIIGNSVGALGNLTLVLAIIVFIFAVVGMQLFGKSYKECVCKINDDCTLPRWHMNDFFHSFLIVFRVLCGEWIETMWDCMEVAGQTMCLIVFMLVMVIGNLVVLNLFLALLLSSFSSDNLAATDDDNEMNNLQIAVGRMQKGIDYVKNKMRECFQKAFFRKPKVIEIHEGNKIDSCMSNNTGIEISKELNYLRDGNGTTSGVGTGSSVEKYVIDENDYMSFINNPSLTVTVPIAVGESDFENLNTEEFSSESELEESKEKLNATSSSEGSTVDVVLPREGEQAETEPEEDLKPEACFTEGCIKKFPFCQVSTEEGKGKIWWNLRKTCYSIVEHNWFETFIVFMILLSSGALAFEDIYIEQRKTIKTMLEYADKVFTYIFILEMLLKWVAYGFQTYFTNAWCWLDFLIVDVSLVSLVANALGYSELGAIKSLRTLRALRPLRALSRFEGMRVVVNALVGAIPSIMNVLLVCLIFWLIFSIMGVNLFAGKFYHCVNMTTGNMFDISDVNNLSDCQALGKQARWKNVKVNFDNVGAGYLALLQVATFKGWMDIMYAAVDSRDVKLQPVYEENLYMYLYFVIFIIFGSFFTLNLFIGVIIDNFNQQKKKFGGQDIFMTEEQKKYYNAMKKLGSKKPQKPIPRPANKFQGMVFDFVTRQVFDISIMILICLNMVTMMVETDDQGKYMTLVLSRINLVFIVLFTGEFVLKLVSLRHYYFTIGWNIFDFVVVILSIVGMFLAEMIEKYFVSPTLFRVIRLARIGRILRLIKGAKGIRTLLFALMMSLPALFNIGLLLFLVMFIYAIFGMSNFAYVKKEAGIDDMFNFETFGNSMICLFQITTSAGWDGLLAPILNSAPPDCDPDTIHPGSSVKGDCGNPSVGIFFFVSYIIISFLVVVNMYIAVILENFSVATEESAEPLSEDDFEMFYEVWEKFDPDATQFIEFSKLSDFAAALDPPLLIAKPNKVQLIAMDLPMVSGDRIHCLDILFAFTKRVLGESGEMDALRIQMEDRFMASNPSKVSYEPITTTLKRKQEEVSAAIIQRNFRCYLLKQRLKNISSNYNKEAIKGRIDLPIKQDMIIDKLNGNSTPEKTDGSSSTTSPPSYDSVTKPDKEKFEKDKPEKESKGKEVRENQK

As to `CC[C@H](C)[C@@H]1NC(=O)[C@@H]2CSSC[C@@H]3NC(=O)[C@H](C(C)C)NC(=O)[C@H](CC(C)C)NC(=O)[C@H](CC(N)=O)NC(=O)[C@@H]4CCCN4C(=O)[C@H](CCCNC(=N)N)NC(=O)[C@H](CSSC[C@H](NC(=O)[C@@H](N)CC(=O)O)C(=O)N[C@@H](CC(C)C)C(=O)NCC(=O)N[C@@H](C)C(=O)N[C@@H](Cc4ccccc4)C(=O)N[C@@H](CCCNC(=N)N)C(=O)N[C@@H](CCCCN)C(=O)N2)NC(=O)[C@H](CSSC[C@@H](C(=O)N[C@@H](CCCCN)C(=O)N[C@@H](Cc2ccc(O)cc2)C(=O)N[C@H](C(=O)N[C@@H](Cc2ccccc2)C(=O)O)C(C)C)NC(=O)[C@H](Cc2c[nH]c4ccccc24)NC(=O)[C@H](CCCNC(=N)N)NC(=O)[C@H](Cc2c[nH]cn2)NC(=O)[C@H]([C@@H](C)O)NC(=O)[C@H](CCCNC(=N)N)NC(=O)[C@H](CO)NC3=O)NC(=O)[C@H](CCCCN)NC(=O)[C@H](CC(=O)O)NC(=O)[C@H](CC(N)=O)NC(=O)[C@H](CC(=O)O)NC(=O)[C@@H]2CCCN2C1=O` [compound 823] (H-DCLGAFRKCIPDNDKCCRPNLVCSRTHRWCKYVF-OH; disulfide 2-17, 9-23, 16-30), the IC50 was 3.4 µM on hNav1.7 (setting [1]); 3.4 µM on hNav1.3 (use-dependent block, hNav1.3); above 5 µM at hNav1.5 (use-dependent block, hNav1.5).

In the case of `CC[C@H](C)[C@@H]1NC(=O)[C@@H]2CSSC[C@@H]3NC(=O)[C@H](C(C)C)NC(=O)[C@H](CC(C)C)NC(=O)[C@H](CC(N)=O)NC(=O)[C@@H]4CCCN4C(=O)[C@H](CCCNC(=N)N)NC(=O)[C@H](CSSC[C@H](NC(=O)[C@@H](N)CC(=O)O)C(=O)N[C@@H](CC(C)C)C(=O)NCC(=O)N[C@@H](C)C(=O)N[C@@H](Cc4ccccc4)C(=O)N[C@@H](CCCNC(=N)N)C(=O)N[C@@H](CCCCN)C(=O)N2)NC(=O)[C@H](CSSC[C@@H](C(=O)N[C@@H](CCCCN)C(=O)N[C@@H](Cc2ccc(O)cc2)C(=O)N[C@H](C(=O)N[C@@H](Cc2ccccc2)C(=O)O)C(C)C)NC(=O)[C@H](Cc2c[nH]c4ccccc24)NC(=O)[C@H](CCCCN)NC(=O)[C@H](Cc2c[nH]cn2)NC(=O)[C@H]([C@@H](C)O)NC(=O)[C@H](CCCNC(=N)N)NC(=O)[C@H](CO)NC3=O)NC(=O)[C@H](CCCCN)NC(=O)[C@H](CC(=O)O)NC(=O)[C@H](CC(N)=O)NC(=O)[C@H](CC(=O)O)NC(=O)[C@@H]2CCCN2C1=O` [compound 829] (H-DCLGAFRKCIPDNDKCCRPNLVCSRTHKWCKYVF-OH; disulfide 2-17, 9-23, 16-30), the IC50 was above 5 µM on hNav1.7 (setting [1]); 2.3 µM on hNav1.3 (use-dependent block, hNav1.3); above 5 µM on hNav1.5 (use-dependent block, hNav1.5).

`CC[C@H](C)[C@@H]1NC(=O)[C@@H]2CSSC[C@@H]3NC(=O)[C@H](C(C)C)NC(=O)[C@H](CC(C)C)NC(=O)[C@H](CC(N)=O)NC(=O)[C@@H]4CCCN4C(=O)[C@H](CCCNC(=N)N)NC(=O)[C@H](CSSC[C@H](NC(=O)[C@@H](N)CC(=O)O)C(=O)N[C@@H](CC(C)C)C(=O)NCC(=O)N[C@@H](CC4CCCCC4)C(=O)N[C@@H](Cc4ccccc4)C(=O)N[C@@H](CCCNC(=N)N)C(=O)N[C@@H](CCCCN)C(=O)N2)NC(=O)[C@H](CSSC[C@@H](C(=O)N[C@@H](CCCCN)C(=O)N[C@@H](Cc2ccc(O)cc2)C(=O)N[C@H](C(=O)N[C@@H](Cc2ccccc2)C(N)=O)C(C)C)NC(=O)[C@H](Cc2c[nH]c4ccccc24)NC(=O)[C@H](CCCCN)NC(=O)[C@H](Cc2c[nH]cn2)NC(=O)[C@H]([C@@H](C)O)NC(=O)[C@H](CCCNC(=N)N)NC(=O)[C@H](CO)NC3=O)NC(=O)[C@H](CCCCN)NC(=O)[C@H](CC(=O)O)NC(=O)[C@H](CC(N)=O)NC(=O)[C@H](CC(=O)O)NC(=O)[C@@H]2CCCN2C1=O` [compound 680] (H-DCLG[Cha]FRKCIPDNDKCCRPNLVCSRTHKWCKYVF-NH2; disulfide 2-17, 9-23, 16-30): the IC50 against hNav1.7 was 0.019 µM; at hNav1.3 (setting [2]) it was 0.032 µM; at hNav1.5 (setting [3]), 3.5 µM.

In the case of `CC[C@H](C)[C@@H]1NC(=O)[C@@H]2CSSC[C@@H]3NC(=O)[C@H](C(C)C)NC(=O)[C@H](CC(C)C)NC(=O)[C@H](CC(N)=O)NC(=O)[C@@H]4CCCN4C(=O)[C@H](CCCNC(=N)N)NC(=O)[C@H](CSSC[C@H](NC(=O)[C@@H](N)CC(=O)O)C(=O)N[C@@H](CC(C)C)C(=O)NCC(=O)N[C@@H](C)C(=O)N[C@@H](Cc4ccccc4)C(=O)N[C@@H](CCCNC(=N)N)C(=O)N[C@@H](CCCCN)C(=O)N2)NC(=O)[C@H](CSSC[C@@H](C(=O)N[C@@H](CCCCN)C(=O)N[C@@H](Cc2ccc(O)cc2)C(=O)N[C@H](C(=O)N[C@@H](Cc2ccccc2)C(=O)O)C(C)C)NC(=O)[C@H](Cc2c[nH]c4ccccc24)NC(=O)[C@H](CCCNC(=N)N)NC(=O)[C@H](Cc2c[nH]cn2)NC(=O)[C@H]([C@@H](C)O)NC(=O)[C@H](CCCNC(=N)N)NC(=O)[C@H](CO)NC3=O)NC(=O)[C@H](CCCCN)NC(=O)[C@H](CC(=O)O)NC(=O)[C@H](Cc2ccccc2)NC(=O)[C@H](CC(=O)O)NC(=O)[C@@H]2CCCN2C1=O` [compound 839], the IC50 on hNav1.7 (setting [1]) was above 5 µM; at hNav1.3 (use-dependent block, hNav1.3), 1.2 µM; at hNav1.5 (use-dependent block, hNav1.5), above 5 µM.

For `CC[C@H](C)[C@@H]1NC(=O)[C@@H]2CSSC[C@@H]3NC(=O)[C@H](C(C)C)NC(=O)[C@H](CC(C)C)NC(=O)[C@H](CC(N)=O)NC(=O)[C@@H]4CCCN4C(=O)[C@H](CCCNC(=N)N)NC(=O)[C@H](CSSC[C@H](NC(=O)[C@@H](N)CC(=O)O)C(=O)N[C@@H](CC(C)C)C(=O)NCC(=O)N[C@@H](CCC(C)C)C(=O)N[C@@H](CC(C)C)C(=O)N[C@@H](CCCNC(=N)N)C(=O)N[C@@H](CCCCN)C(=O)N2)NC(=O)[C@H](CSSC[C@@H](C(=O)N[C@@H](CCCCN)C(=O)N[C@@H](Cc2ccc(O)cc2)C(=O)N[C@H](C(=O)N[C@@H](Cc2ccccc2)C(N)=O)C(C)C)NC(=O)[C@H](Cc2c[nH]c4ccccc24)NC(=O)[C@H](CCCCN)NC(=O)[C@H](Cc2c[nH]cn2)NC(=O)[C@H]([C@@H](C)O)NC(=O)[C@H](CCCNC(=N)N)NC(=O)[C@H](CO)NC3=O)NC(=O)[C@H](CCCCN)NC(=O)[C@H](CC(=O)O)NC(=O)[C@H](CC(N)=O)NC(=O)[C@H](CC(=O)O)NC(=O)[C@@H]2CCCN2C1=O` [compound 660], the IC50 was 0.031 µM at hNav1.7 (IonWorks Quattro, use-dependent protocol, hNav1.7, read-out: IWQ Use Nav1.7); 0.059 µM on hNav1.3 (setting [2]); above 5 µM on hNav1.5 (setting [3]).

Take `CC[C@H](C)[C@@H]1NC(=O)[C@@H]2CSSC[C@@H]3NC(=O)[C@H](C(C)C)NC(=O)[C@H](CC(C)C)NC(=O)[C@H](CC(N)=O)NC(=O)[C@@H]4CCCN4C(=O)[C@H](CCCNC(=N)N)NC(=O)[C@H](CSSC[C@H](NC(=O)[C@@H](N)CC(=O)O)C(=O)N[C@@H](CC(C)C)C(=O)NCC(=O)N[C@@H](Cc4ccccc4)C(=O)N[C@@H](CCSC)C(=O)N[C@@H](CCCNC(=N)N)C(=O)N[C@@H](CCCCN)C(=O)N2)NC(=O)[C@H](CSSC[C@@H](C(=O)N[C@@H](CCCCN)C(=O)N[C@@H](Cc2ccc(O)cc2)C(=O)N[C@H](C(=O)N[C@@H](Cc2ccccc2)C(N)=O)C(C)C)NC(=O)[C@H](Cc2c[nH]c4ccccc24)NC(=O)[C@H](CCCCN)NC(=O)[C@H](CCCCN(C)C)NC(=O)[C@H]([C@@H](C)O)NC(=O)[C@H](CCCNC(=N)N)NC(=O)[C@H](CO)NC3=O)NC(=O)[C@H](CCCCN)NC(=O)[C@H](CC(=O)O)NC(=O)[C@H](CC(N)=O)NC(=O)[C@H](CC(=O)O)NC(=O)[C@@H]2CCCN2C1=O` [compound 354] (H-DCLGFMRKCIPDNDKCCRPNLVCSRT[Lys(Me2)]KWCKYVF-NH2; disulfide 2-17, 9-23, 16-30): the IC50 on hNav1.7 (Table 23, IonWorks Quattro, use, […], read-out: IWQ Use Nav1.7) came out at 7 µM; at hNav1.3 (Table 23, use, […]) it was 3.82 µM; at hNav1.5 (Table 23, use, […]) it was 12.4 µM.
